{
  "source": "paper PMC12196278",
  "about": "“Targeting Neuronal Nitric Oxide Synthase (nNOS) as a Novel Approach to Enhancing the Anti-Melanoma Activity of Immune Checkpoint Inhibitors” (Pharmaceutics, 2025)",
  "key": {"Human nNOS": {"biological_target": "Human nNOS (Homo sapiens, UniProt P29475)", "sequence (P29475 whole entry)": "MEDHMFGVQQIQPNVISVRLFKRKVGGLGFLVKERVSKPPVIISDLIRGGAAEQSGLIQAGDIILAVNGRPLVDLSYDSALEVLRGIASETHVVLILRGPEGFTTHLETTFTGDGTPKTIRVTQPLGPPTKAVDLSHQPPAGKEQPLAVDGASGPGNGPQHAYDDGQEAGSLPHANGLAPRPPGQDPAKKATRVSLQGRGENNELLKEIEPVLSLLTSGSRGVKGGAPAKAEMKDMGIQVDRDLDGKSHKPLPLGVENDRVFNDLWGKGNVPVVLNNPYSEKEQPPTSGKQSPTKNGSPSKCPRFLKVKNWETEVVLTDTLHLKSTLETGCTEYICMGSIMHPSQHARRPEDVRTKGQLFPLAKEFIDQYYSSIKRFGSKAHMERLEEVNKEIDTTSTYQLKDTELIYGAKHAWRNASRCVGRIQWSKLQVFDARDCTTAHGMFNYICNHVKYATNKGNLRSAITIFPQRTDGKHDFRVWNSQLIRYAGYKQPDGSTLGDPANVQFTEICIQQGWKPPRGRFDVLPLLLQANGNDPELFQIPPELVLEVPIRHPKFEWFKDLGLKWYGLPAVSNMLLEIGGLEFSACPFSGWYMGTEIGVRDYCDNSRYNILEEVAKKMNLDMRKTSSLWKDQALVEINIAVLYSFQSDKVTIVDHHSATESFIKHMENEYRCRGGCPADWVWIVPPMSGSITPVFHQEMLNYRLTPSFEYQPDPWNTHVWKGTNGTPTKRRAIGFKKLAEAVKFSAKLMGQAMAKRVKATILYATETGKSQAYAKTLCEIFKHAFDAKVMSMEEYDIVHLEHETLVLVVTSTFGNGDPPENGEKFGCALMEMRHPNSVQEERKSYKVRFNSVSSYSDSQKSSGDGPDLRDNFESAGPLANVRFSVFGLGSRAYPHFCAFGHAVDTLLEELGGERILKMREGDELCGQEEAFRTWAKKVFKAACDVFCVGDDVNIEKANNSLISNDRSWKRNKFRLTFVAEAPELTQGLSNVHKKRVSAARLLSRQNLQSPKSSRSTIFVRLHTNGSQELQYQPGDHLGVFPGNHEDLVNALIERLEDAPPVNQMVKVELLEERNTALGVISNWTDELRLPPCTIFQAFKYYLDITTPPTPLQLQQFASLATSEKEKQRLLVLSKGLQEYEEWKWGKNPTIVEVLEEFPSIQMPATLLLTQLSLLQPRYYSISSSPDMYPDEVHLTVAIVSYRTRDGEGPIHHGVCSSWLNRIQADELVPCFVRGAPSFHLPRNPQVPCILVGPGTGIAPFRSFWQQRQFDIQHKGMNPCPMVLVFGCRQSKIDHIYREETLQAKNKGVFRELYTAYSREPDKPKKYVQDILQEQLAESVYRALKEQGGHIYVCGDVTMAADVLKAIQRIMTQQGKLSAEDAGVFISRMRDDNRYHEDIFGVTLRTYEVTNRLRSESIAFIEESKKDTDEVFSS", "experiment": "nNOS inhibitory assay, human nNOS", "type": "biochemical", "details": "calculated from IC50 with Cheng-Prusoff equation; read-out: Ki Human nNOS (hn)", "protocol": "The Ki values were calculated from the IC50 values of the corresponding dose-response curves using the Cheng-Prusoff equation. […] Selectivity values were determined by calculating the ratios of the respective Ki values."}, "Human eNOS": {"biological_target": "Human eNOS (Homo sapiens, UniProt P29474)", "sequence (P29474 whole entry)": "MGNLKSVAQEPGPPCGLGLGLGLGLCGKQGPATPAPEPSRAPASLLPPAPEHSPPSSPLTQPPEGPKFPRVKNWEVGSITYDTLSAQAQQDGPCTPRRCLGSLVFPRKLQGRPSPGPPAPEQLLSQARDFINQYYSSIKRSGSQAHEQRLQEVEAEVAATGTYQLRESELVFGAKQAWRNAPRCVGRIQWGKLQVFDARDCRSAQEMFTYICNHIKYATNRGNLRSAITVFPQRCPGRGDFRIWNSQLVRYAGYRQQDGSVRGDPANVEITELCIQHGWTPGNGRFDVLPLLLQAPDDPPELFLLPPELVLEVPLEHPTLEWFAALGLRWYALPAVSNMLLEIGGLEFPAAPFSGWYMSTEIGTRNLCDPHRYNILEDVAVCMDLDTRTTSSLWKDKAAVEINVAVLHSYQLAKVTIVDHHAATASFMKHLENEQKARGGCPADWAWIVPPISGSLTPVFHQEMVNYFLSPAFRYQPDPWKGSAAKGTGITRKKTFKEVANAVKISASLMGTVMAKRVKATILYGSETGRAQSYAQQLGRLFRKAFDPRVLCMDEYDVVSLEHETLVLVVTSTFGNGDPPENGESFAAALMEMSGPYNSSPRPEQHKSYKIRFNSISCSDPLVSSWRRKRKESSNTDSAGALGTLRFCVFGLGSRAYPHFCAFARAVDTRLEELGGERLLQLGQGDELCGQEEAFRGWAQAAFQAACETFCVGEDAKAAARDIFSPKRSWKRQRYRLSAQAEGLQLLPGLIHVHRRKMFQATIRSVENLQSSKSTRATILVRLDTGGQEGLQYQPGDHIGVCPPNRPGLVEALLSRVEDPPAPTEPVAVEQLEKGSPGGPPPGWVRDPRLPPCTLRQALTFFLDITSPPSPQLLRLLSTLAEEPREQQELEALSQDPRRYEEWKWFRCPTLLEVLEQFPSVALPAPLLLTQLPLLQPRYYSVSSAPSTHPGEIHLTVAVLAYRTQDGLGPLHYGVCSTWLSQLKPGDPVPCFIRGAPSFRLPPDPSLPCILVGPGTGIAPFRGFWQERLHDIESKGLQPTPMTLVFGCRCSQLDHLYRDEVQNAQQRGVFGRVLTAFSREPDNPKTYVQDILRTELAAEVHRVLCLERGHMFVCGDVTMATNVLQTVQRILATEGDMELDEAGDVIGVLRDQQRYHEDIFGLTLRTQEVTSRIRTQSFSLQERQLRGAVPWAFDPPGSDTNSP", "experiment": "NOS selectivity assay, human eNOS", "type": "biochemical", "details": "calculated from IC50 with Cheng-Prusoff equation; read-out: Ki Human eNOS (he)", "protocol": "The Ki values were calculated from the IC50 values of the corresponding dose-response curves using the Cheng-Prusoff equation. […] All standard errors were less than 5%. Selectivity values were determined by calculating the ratios of the respective Ki values."}, "A375 cells": {"system": "A375 cells", "experiment": "NanoString nCounter PanCancer IO 360 gene expression profiling", "type": "cell-based, human", "protocol": "After treatment, the total RNA samples were collected from A375 cells using an RNeasy Mini Kit (#74104; Qiagen, Hilden, Germany) and stored at −80 °C prior to analysis. The nCounter PanCancer IO 360 Panel and nCounter Pro Analysis System (NanoString, Seattle, WA, USA) were used to quantify gene expression changes in 770 genes implicated in immune-oncological processes. The transcriptomic data were analyzed using ROSALIND online platform (https://www.rosalind.bio/, San Diego, CA, USA).\n(b) Comparing IFN-γ treatment to control. (c) Comparing the combination treatment to IFN-γ alone. […] All the treatments were independently repeated three times. […] The analysis was based on the expression changes of genes involved in each specific pathway, with a higher score signifying a greater probability of pathway involvement."}, "peripheral T cells": {"system": "peripheral T cells", "experiment": "Immune profile of peripheral T cells in allograft melanoma mice (flow cytometry)", "type": "in vivo, mouse", "details": "HH044 10 mg/kg intraperitoneal daily, peripheral blood, vs control group", "protocol": "The in vivo studies were carried out in compliance with the ARRIVE guidelines. All animal procedures were approved by the Institutional Animal Care and Use Committee (IACUC) at Chapman University and conducted in compliance with the policies of Chapman University and federal, state, and local animal welfare authorities. DBA/2 mice were purchased from Charles River (Wilmington, MA, USA) and housed in the Chapman University vivarium. Male mice were selected for the in vivo studies due to the markedly slow growth rate of CS91 cells in female mice observed in previous studies. To induce melanoma tumor growth, the mice were injected subcutaneously with 1 × 10^5 CS91 murine melanoma cells in a 100 μL solution of 50% Matrigel basement membrane matrix (CB354248, Corning, Corning, NY, USA). […] At the end of the study, peripheral blood was collected from the mice for T cell analysis.\nCells were blocked in FACS block buffer (0.5% BSA, 2% FBS in 1× PBS) and incubated in a surface marker antibody dilution in FACS wash buffer (0.5% BSA, 0.05% NaN3 in 1× PBS). Following fixation with True-Nuclear Fix Buffer (424401; BioLegend, San Diego, CA, USA), the cells were incubated with an intracellular antibody diluted in True-Nuclear Perm Buffer (424401; BioLegend, San Diego, CA, USA) overnight at 4 °C. The stained cells were then washed with Perm Buffer and analyzed using a BD Fortessa X20 flow cytometer (BD Biosciences, San Jose, CA, USA). Compensation beads (anti-mouse 552843; anti-rat 552844; BD Biosciences, Franklin Lakes, NJ, USA) stained with single antibodies were used to calculate the compensation, and data were analyzed and gated using FlowJo v. 10.8.1 (FlowJo LLC, Ashland, OR, USA).\nPeripheral blood samples were collected from the DBA/2 mice at the end of the study. T cells were isolated from the blood using Ficoll separation and stained as described above. The Ficoll-Paque solution was obtained from Cytiva (17144002; Marlborough, MA, USA). The T cell marker antibodies used were Brilliant Violet 605 anti-mouse CD3, PE/Cyanine7 anti-mouse CD4, Brilliant Violet 785 anti-mouse CD8a, APC/Cyanine7 anti-mouse CD279 (PD-1), Alexa Fluor 647 anti-GATA3, Alexa Fluor 488 anti-mouse FOXP3, Brilliant Violet 421 anti-T-bet (100237; 100421; 100749; 135223; 653809; 126406; 644815; BioLegend, San Diego, CA, USA), and PE-CF594 mouse anti-mouse RORγt (562684; BD Biosciences, Franklin Lakes, NJ, USA)."}, "[1]": {"system": "CS91 murine melanoma allograft", "experiment": "In vivo anti-melanoma efficacy, immunocompetent allograft model, tumor volume", "parameters": "species or system mouse", "details": "day 18, DBA/2 mice, nNOS inhibitor 10 mg/kg/day intraperitoneal, anti-PD-1 100 µg twice per week for 2 weeks", "protocol": "(§1) As described above, male DBA/2 mice were purchased from Charles River and housed in the Chapman University vivarium under pathogen-free conditions. Each mouse received a subcutaneous injection in the flank with 0.25 × 10^6 CS91 cells suspended in 50% Matrigel. […] The body weight and tumor volume were measured twice weekly for three weeks. Tumors were measured using calipers, and the volume (mm^3) was calculated with the following formula: volume = [length × (width^2)]/2. The mice were sacrificed once their tumors reached 2000 mm^3, and dates were recorded for survival analysis."}, "[2]": {"system": "CS91 murine melanoma allograft", "experiment": "Survival analysis in the murine melanoma model (endpoint tumor volume 2000 mm^3)", "type": "in vivo, mouse", "details": "DBA/2 mice, CS91, result in words", "protocol": "as §1\nStatistical analyses were carried out using GraphPad Prism 9. Comparisons of multiple groups were performed using mixed-effects analysis of variance (ANOVA) followed by Tukey’s post hoc test for parametric data. Statistical comparisons of two groups were performed using an unpaired two-tailed t-test for parametric data. Statistical comparison for a simple 2 × 2 contingency table was performed using a Chi-Square calculator on Social Science Statistics. Kaplan Meier methods were utilized for estimating the survival probability over time, with a tumor volume of 2000 mm^3 marking the endpoint for the survival study. A p value less than 0.05 was considered statistically significant for all statistical analyses. Data are graphically represented as bar graphs with the mean ± standard error of the mean (SEM)."}, "[3]": {"experiment": "Body weight, cecum weight and toxicity signs in treated mice", "type": "in vivo, mouse", "protocol": "as §1\nUpon reaching the study endpoint, the mice were euthanized, and organs were collected and weighed."}, "CS91 cells": {"system": "CS91 cells", "experiment": "Ex vivo sensitivity of murine melanoma cells after prolonged treatment (MTT)", "type": "cell-based, mouse", "protocol": "The aseptically collected tumor samples were mechanically dissociated in 1× PBS and passed through a 40 µm cell strainer. Single cell suspensions were centrifuged and resuspended in full growth media supplemented with 100 µg/mL of primocin. The cells were then plated and allowed to adhere for 24 h. Afterward, the cultures were washed twice with 1× PBS to remove non-adherent cells and allowed to grow in full growth media.\nGraphPad Prism 9 was used to determine the IC50 of each compound by plotting the percent cell viability against the log drug concentrations and fitted using a nonlinear fit of the normalized data."}, "melanoma cells": {"system": "melanoma cells", "parameters": "method as in PMID 35105915", "details": "read-out: Cytotoxicity IC50; cited from earlier work"}},
  "note": "Where two headings read alike, the source gives them in different places.",
  "data": [
    {"molecule": "N=C(Nc1ccc(CCNCc2cccc(NC(=N)c3cccs3)c2)cc1)c1cccs1", "note": "[HH044]", "values": [
      {"measurement": "Ki", "setting": "Human nNOS", "result": 0.02, "unit": "µM"},
      {"measurement": "Ki", "setting": "Human eNOS", "result": 6.74, "unit": "µM"},
      {"measurement": "Notch2 expression", "setting": "A375 cells; HH044 in the presence of IFN-γ", "result": "increased"},
      {"measurement": "AXIN1 expression", "setting": "A375 cells; HH044 treatment, A375", "result": "increased"},
      {"measurement": "WNT5A expression", "setting": "A375 cells; HH044 treatment, A375", "result": "downregulated"},
      {"measurement": "IL-1α expression", "setting": "A375 cells; HH044 treatment, A375, p < 0.05", "result": "30.3 % of the control"},
      {"measurement": "expression of EDN1, PDGFB, and MMP9", "setting": "A375 cells; HH044 treatment, A375, vs control", "result": "significantly reduced"},
      {"measurement": "CD4+ T cell counts", "setting": "peripheral T cells", "result": "significantly increased"},
      {"measurement": "CD4+GATA3+, CD4+RORγt+, CD4+Tbet+, and CD4+RORγt+FOXP3+ T cell counts", "setting": "peripheral T cells", "result": "decreased"},
      {"measurement": "CD8+FOXP3+, CD8+GATA3+, CD8+Tbet+, and CD8+RORγt+FOXP3+ T cells", "setting": "peripheral T cells", "result": "significantly decreased"},
      {"measurement": "frequency of CD8+PD-1+ T cells", "setting": "peripheral T cells", "result": "markedly increased"},
      {"measurement": "overall percentage of CD8+ T cells", "setting": "peripheral T cells", "result": "significantly decreased"},
      {"measurement": "tumor growth / average tumor volume", "setting": "[1]", "result": "45.7 % of the control"},
      {"measurement": "median survival / mouse survival compared with the control group", "setting": "[2]", "result": "not found to have significantly different median survival values"},
      {"measurement": "cecum weights", "setting": "[3]; HH044 intraperitoneal 10 mg/kg/day ≥21 days vs control, p < 0.0001", "result": "significantly increased"},
      {"measurement": "cecum weight", "setting": "[3]; HH044 oral gavage 10, 25 and 50 mg/kg per os daily, preliminary study", "result": "failed to observe any significant differences"},
      {"measurement": "behavior and signs of toxicity during treatment", "setting": "[3]; HH044 treatment ≥21 days", "result": "no behavioral changes or other observable signs of severe toxicity or distress"},
      {"measurement": "body weight", "setting": "[3]; HH044 treatment, 21 days", "result": "88 % of the control"},
      {"measurement": "body weight compared with the control", "setting": "[3]; prolonged treatment, 21 days", "result": "significantly lower"},
      {"measurement": "IC50", "setting": "CS91 cells; mice treated with the same compound 10 mg/kg/day intraperitoneal, read-out: IC50 of CS91 cells isolated from tumors of nNOS inhibitor-treated mice", "result": 10.4, "unit": "µM"},
      {"measurement": "IC50", "setting": "CS91 cells; read-out: IC50 of in vitro cultured CS91 cells", "result": 12.7, "unit": "µM"},
      {"measurement": "IC50", "setting": "melanoma cells", "result": "5.27 ± 3.3", "unit": "µM"}
    ]}
  ]
}
